{"source": "paper PMC5537602", "about": "“TRPA1 channel mediates organophosphate-induced delayed neuropathy” (Cell Discovery, 2017)", "key": {"TRPV1": {"molecular_target": "T1, TRPV1 (Homo sapiens, UniProt Q8NER1)", "T1 construct": "expressed in transfected cells; host or cells: HEK293", "experiment": "Calcium fluorescence signal, HEK293 cells overexpressing TRPV1", "type": "cell-based", "settings": "10 μM", "description": "(§1) Figure S3. Specificity of malathion for TRPA1 channels. (A-F) Time course of the fluorescence signal induced by malathion (Mala, 10 μM) and the indicated positive agonists (10 μM) in HEK293 cells overexpressing TRPV1 (A), TRPV3 (B), TRPV4 (C), TRPM8 (D), TRPC4 (E) and TRPC5 (F) channels. The fluorescence signals are scaled as F/F0. EC indicates external solution. […]\n(§2) cells for each tested TRP channel. All bars are presented as the mean ± SEM. […]"}, "TRPV4": {"molecular_target": "T2, TRPV4 (Homo sapiens, UniProt Q9HBA0)", "T2 construct": "expressed in transfected cells; host or cells: HEK293", "experiment": "Calcium fluorescence signal, HEK293 cells overexpressing TRPV4", "type": "cell-based", "settings": "10 μM", "description": "as §1, §2"}, "TRPC5": {"molecular_target": "T3, TRPC5 (Homo sapiens, UniProt Q9UL62)", "T3 construct": "expressed in transfected cells; host or cells: HEK293", "T3 sequence (Q9UL62 1-973)": "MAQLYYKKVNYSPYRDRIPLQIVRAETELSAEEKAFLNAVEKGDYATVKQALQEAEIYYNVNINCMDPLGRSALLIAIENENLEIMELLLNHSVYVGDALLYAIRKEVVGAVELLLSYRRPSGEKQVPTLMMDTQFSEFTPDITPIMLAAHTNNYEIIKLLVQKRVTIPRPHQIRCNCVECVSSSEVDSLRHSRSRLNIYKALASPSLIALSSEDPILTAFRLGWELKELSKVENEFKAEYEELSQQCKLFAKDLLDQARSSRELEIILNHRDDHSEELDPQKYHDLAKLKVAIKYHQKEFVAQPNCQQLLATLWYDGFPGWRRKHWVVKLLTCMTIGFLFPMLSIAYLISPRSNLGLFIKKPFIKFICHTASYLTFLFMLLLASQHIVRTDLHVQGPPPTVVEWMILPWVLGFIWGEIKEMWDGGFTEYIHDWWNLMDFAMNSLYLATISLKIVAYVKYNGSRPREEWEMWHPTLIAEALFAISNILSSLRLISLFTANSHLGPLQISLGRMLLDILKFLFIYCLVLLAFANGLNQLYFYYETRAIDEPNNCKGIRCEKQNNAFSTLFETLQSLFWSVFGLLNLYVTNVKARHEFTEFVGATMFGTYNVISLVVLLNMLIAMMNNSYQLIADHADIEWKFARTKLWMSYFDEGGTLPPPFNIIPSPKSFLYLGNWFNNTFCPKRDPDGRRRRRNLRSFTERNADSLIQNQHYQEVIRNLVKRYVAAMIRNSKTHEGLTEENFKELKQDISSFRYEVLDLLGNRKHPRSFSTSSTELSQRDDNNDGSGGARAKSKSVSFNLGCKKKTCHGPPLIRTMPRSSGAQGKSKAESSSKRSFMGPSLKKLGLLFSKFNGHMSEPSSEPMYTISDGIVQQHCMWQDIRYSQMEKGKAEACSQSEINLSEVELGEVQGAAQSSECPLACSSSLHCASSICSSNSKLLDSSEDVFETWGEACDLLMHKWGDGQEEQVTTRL", "experiment": "Calcium fluorescence signal, HEK293 cells overexpressing TRPC5", "type": "cell-based", "settings": "10 μM", "description": "as §1, §2"}, "[1]": {"system": "hTRPA1 carrying single mutations (C414A, C421A, C621A, C641A, C665A or K710R)", "experiment": "Whole-cell patch-clamp of mutant hTRPA1 channels", "type": "cell-based, human", "settings": "30 μM malathion", "description": "Human embryonic kidney 293 (HEK293) cells were cultured in DMEM containing 10% (vol/vol) heat-inactivated fetal bovine serum, 100 units ml^−1 penicillin–streptomycin and 2 mM L-glutamine at 37 °C in a humidity-controlled sterile incubator with 5% CO2. All cell culture reagents were purchased from Life Technologies. HEK293 cells were transfected transiently with the corresponding plasmids using lipofectamine 2000 (Life Technologies). Transfection efficiency was monitored by co-transfecting EGFP plasmid which codes for the enhanced green fluorescent protein. Electrophysiological recordings were performed between 24 and 36 h after transfection.\nWhole-cell patch-clamp recordings in DRG neurons (small diameter, […]) and HEK293 cells were operated at room temperature (23–25 °C) using EPC-10 amplifier and Patch Master Software (HEKA). […] Currents were sampled at 10 kHz and low-pass filtered at 2.9 kHz. The internal solution was as follows (in mM): 140 CsCl, 10 HEPES, 5 EGTA, 0.1 CaCl2 and 1 MgCl2, with pH adjusted to 7.2 by CsOH and osmolarity 295–300 mOsm. […] TRPA1 currents development was monitored with repetitive injections of 300 ms duration voltage ramps from −100 to +100 mV every 2 s and the holding potential was set to 0 mV for 50 ms, existing in both sides of the voltage ramp. […]"}, "mouse DRG neurons": {"system": "mouse DRG neurons", "experiment": "Single-cell calcium imaging (Fura-2/AM) of isolated DRG neurons", "type": "cell-based", "description": "DRG neurons were isolated from young C57 BL/6 mice (4–5 weeks). The sections of thoracic and lumbar DRG neurons were rapidly isolated in calcium and magnesium-free PBS with low temperature conditions (ice-bath environment). The isolated tissues were cut into pieces with scissor and incubated for 30 min with 0.1% collagenase and 0.025% trypsin which were diluted by DMEM-F12 at 37 °C. After digestion, neurons were gently dissociated using Pasteur pipettes and then plated onto poly-D-lysine pre-coated glass cover slips. DRG neurons were cultured for 24 h before use.\nCalcium influx signals were monitored using the ratio metric fluorescent indicator dye Fura-2/AM at room temperature (23–25 °C). Cells were incubated with 2 μM Fura-2/AM, which was generated by diluting the stock solution with normal external solution, for 30 min at 37 °C. […] The maximum excitation wave length of Fura-2/AM was changed to 340 nm from 380 nm when combined with calcium ions. Fura-2/AM was excited at 340 and 380 nm with a rapid switching monochromator obtained from TILL Photonics, and the mean fluorescence intensity ratios (F340/F380) reflected real-time changes in the concentration of intracellular free calcium ions. The external solution used in the DRG whole-cell patch-clamp recordings was also used for calcium imaging. Solutions were switched using a gravity-fed continuous focal perfusion system."}}, "data": [{"compound": "CCOC(=O)CC(SP(=S)(OC)OC)C(=O)OCC", "note": "(stereo not drawn) [malathion, S-[1,2-bis (ethoxycarbonyl)ethyl] O, O-dimethyl phosphorodithioate]", "values": [{"measurement": "activation of TRPV1", "setting": "TRPV1", "result": "could not activate"}, {"measurement": "activation of TRPV4", "setting": "TRPV4", "result": "could not activate"}, {"measurement": "activation of TRPC5", "setting": "TRPC5", "result": "could not activate"}, {"measurement": "response of mutant hTRPA1 compared to WT channels", "setting": "[1]", "result": "significantly reduced"}, {"measurement": "[Ca2+]i response of DRG neurons from Trpa1−/− mice", "setting": "mouse DRG neurons; Trpa1−/− neurons", "result": "thoroughly unresponsive"}, {"measurement": "neurons displaying a robust increase in [Ca2+]i", "setting": "mouse DRG neurons; wild-type small-diameter neurons, sequential application of AITC and malathion, 197/451", "result": "~ 44%"}]}]}
